Results reported in patent US20120028897A1, “METHODS AND COMPOSITIONS FOR THE TREATMENT OF FLUID RETENTION DISORDERS” (priority 2008, published 2012).
Entries after “also recorded” stand apart in the source; their conditions may differ.

Key:
anesthetized rats [1] = experiment: Renal sodium excretion during and after iv peptide infusion in anesthetized rats; type: in vivo, rat
Protocol: Rats were not fasted prior to clearance experiments and ranged in weight from 250-340 g at the time of study. Anesthesia was induced with an intraperitoneal injection of pentobarbital sodium (55 mg/kg BW) and maintained at a surgical plane by intermittent intravenous supplementation. Core temperature was maintained at 37° C. by a servo-controlled, heated operating table. Animals breathed spontaneously through a PE240 cannula inserted into the trachea. A jugular vein was catheterized with PE50 cannula tubing for intravenous infusion of isotonic saline containing FITC-labeled inulin (0.4% W/V, Sigma, St Louis Mo.) and two PE10 cannulae, one for supplemental anesthetic and the other for peptide infusions (described below in the experimental protocol section). The ureters were exposed through a midline ventral incision and cannulated with PE10 tubing about one cm from each kidney. Urine was collected over 20 min periods and the volume estimated by weight. A femoral artery was cannulated with PE50 tubing for continuous measurement of arterial blood pressure and intermittent blood samples (50 μl), taken at the mid point of each urine collection.
(§1) All rats received a continuous intravenous infusion (10 μl/min/100 g BW) of isotonic saline containing FITC-labeled inulin for measurement of inulin clearance. Uncongugated FITC label and small inulin polymers were removed from the inulin solution by overnight dialysis against isotonic saline (SpectraPor 6 dialysis membrane, 1 kDa cutoff-limit, Spectrum Laboratories, Rancho Domingo, Calif.). Undissolved particulates were removed from the solution by filtration through a […] filter before each experiment (Steriflip, Millipore Inc. Billerica, Mass.). At least one hr was allowed for equilibration before the start of urine collections, at which point plasma inulin concentration had stabilized at an average value of 30±3 μg/ml.
(§2) Arterial blood pressure was measured with a pressure transducer connected to a cardiovascular analyzer (Model 50110, Stoelting Instruments Wood Dale, Ill.). Left renal blood flow was measured in some rats with a flow probe positioned on the left renal artery and connected to a blood flow monitor (model 1 PRB probe and model T420 monitor, Transonic Systems Inc. Ithaca N.Y.). Arterial pressure, heart rate, and renal blood flow were digitized with an A/D converter (Keithley instruments, Cleveland, Ohio Model KUSB 3100) for display and storage on a Windows-based personal computer using open layers data acquisition software (Dtx_Ez, Data Translation Inc, Marlboro, Mass.). Sodium and potassium concentrations in plasma and urine were measured by flame photometry (Model 943, Instrumentation Laboratory Co., Lexington Mass.). Glomerular filtration rate (GFR) was measured as the renal clearance rate of FITC-labeled inulin
(§3) After post-surgical equilibration (−60 min) and three 20 min control clearance periods, huUgnA or B was infused into the jugular vein at 10 μl/min over a 60 min period, followed by a return to isotonic saline for the remainder of the experiment. The infused doses of huUgnA were 12, 25, 50, 100, or 200 nmol/kg BW in a total of 38 rats; huUgnB doses were 9, 18, 35, 70, and 140 nmol/kg BW in 35 rats. A UgnA mimetic, E. coli STh (ST-core), was infused into a third group of 32 rats at doses of 17, 32, 66, 133, and 266 nmol/kg. Renal excretory responses to these infusions were slow to develop and long lasting, so clearance periods were continued for 2-3 hr after the termination of the peptide infusion. This protracted time course limited protocols to one dose of one peptide in each rat. A control group of 10 rats received isotonic saline at 10 μl/min in place of the peptide infusion, but was otherwise treated in the same way as the experimental groups.
The effects of combined infusions of huUgnA and B were investigated in two groups of rats that received 35 nmol/kg of huUgnB together with either 25 nmol/kg (n=5) or 100 nmol/kg of huUgnA (n=5). […]

anesthetized rats [2] = experiment: Glomerular filtration rate (FITC-inulin clearance) during and after iv peptide infusion; type: in vivo, rat
Protocol: as §1, §2, §3
This assay was based on the method described by Lorenz and Gruenstein. Urine samples were diluted with hepes-buffered saline (3, 5, 10, or 20 fold, based on urine flow) to neutralize the pH and bring the intensity of FITC emissions into detector range. Small volumes (3-5 μl) of diluted urine and undiluted plasma samples were drawn into constant bore capillary tubes (10 μl Microcap tubes, Drummond Scientific Company, Broomall Pa.) and sealed at each end with water-saturated mineral oil. FITC emission intensity was measured by imaging each sample at 10× magnification with an epifluorescence microscope (Axiovert S100TV, Carl Zeiss Inc. Thornwood, N.Y.) fitted with a CCD camera (Orca II, Hamamatsu Inc. Bridgewater, N.J.) controlled by Metamorph imaging software (Molecular Devices, Sunnyvale, Calif.). Fluorescence intensities were measured as mean pixel intensity obtained from a consistent central region of each sample during a 25 or 500 msec exposure for urine and plasma, respectively. Background intensities were measured in the same way using bladder urine and tail vein plasma collected from the same rat before the beginning of inulin infusion. Inulin concentrations in plasma and urine samples were calculated from a standard curve prepared from the infusion solution used in each experiment. […]

[3] = huUgnB 35 nmol, Post-infuse, *** p<0.005 vs time control

CC(C)C[C@H](NC(=O)[C@@H]1CSSC[C@@H]2NC(=O)[C@H](CC(C)C)NC(=O)[C@H](CCC(=O)O)NC(=O)[C@@H](NC(=O)[C@H](CC(=O)O)NC(=O)[C@H](CC(=O)O)NC(=O)[C@@H](N)CC(N)=O)CSSC[C@H](NC(=O)[C@H](C)NC(=O)[C@H](C(C)C)NC(=O)[C@H](CC(N)=O)NC(=O)[C@H](C(C)C)NC2=O)C(=O)N[C@@H]([C@@H](C)O)C(=O)NCC(=O)N1)C(=O)O (single isomer, unassigned) [huUgnB, Asn Asp Asp Cys Glu Leu Cys Val Asn Val Ala Cys Thr Gly Cys Leu]
net cumulative sodium excretion, co-infusion (anesthetized rats [1]; huUgnA 25 nmol/kg combined with huUgnB 35 nmol/kg): did not produce an additive response; also recorded: not different from the natriuresis evoked by A25 or B35 alone | net cumulative sodium excretion, co-infusion (anesthetized rats [1]; huUgnA 100 nmol/kg combined with huUgnB 35 nmol/kg): almost completely suppressed; also recorded: significantly less than the response to B35 alone | FENa (fractional sodium excretion) (anesthetized rats [1]; huUgnB 9 nmol, Infuse): 0.09 ± 0.02 % of filtered | UNaV (sodium excretion) (anesthetized rats [1]; huUgnB 9 nmol, Infusion): 134.6 ± 53 nEq/min/g KW | FENa (fractional sodium excretion) (anesthetized rats [1]; huUgnB 9 nmol, Post-infuse): 0.21 ± 0.04 % of filtered | UNaV (sodium excretion) (anesthetized rats [1]; huUgnB 9 nmol, Post-infuse): 195 ± 37 nEq/min/g KW | FENa (fractional sodium excretion) (anesthetized rats [1]; huUgnB 9 nmol, Pre-infuse): 0.05 ± 0.01 % of filtered | UNaV (sodium excretion) (anesthetized rats [1]; huUgnB 9 nmol, Pre-infuse): 67 ± 17 nEq/min/g KW | FENa (fractional sodium excretion) (anesthetized rats [1]; huUgnB 18 nmol, Infuse): 0.12 ± 0.03 % of filtered | UNaV (sodium excretion) (anesthetized rats [1]; huUgnB 18 nmol, Infusion): 155.2 ± 34 nEq/min/g KW | FENa (fractional sodium excretion) (anesthetized rats [1]; huUgnB 18 nmol, Post-infuse): 0.42 ± 0.08 % of filtered | UNaV (sodium excretion) (anesthetized rats [1]; huUgnB 18 nmol, Post-infuse, *** p<0.005 vs time control): 538 ± 81*** nEq/min/g KW | FENa (fractional sodium excretion) (anesthetized rats [1]; huUgnB 18 nmol, Pre-infuse): 0.07 ± 0.01 % of filtered | UNaV (sodium excretion) (anesthetized rats [1]; huUgnB 18 nmol, Pre-infuse): 83 ± 19 nEq/min/g KW | FENa (fractional sodium excretion) (anesthetized rats [1]; huUgnB 35 nmol, Infuse): 0.27 ± 0.07 % of filtered | UNaV (sodium excretion) (anesthetized rats [1]; huUgnB 35 nmol, Infusion): 229.4 ± 47 nEq/min/g KW | FENa (fractional sodium excretion) (anesthetized rats [1]; [3]): 0.62 ± 0.10*** % of filtered | UNaV (sodium excretion) (anesthetized rats [1]; [3]): 729 ± 73*** nEq/min/g KW | FENa (fractional sodium excretion) (anesthetized rats [1]; huUgnB 35 nmol, Pre-infuse): 0.12 ± 0.02 % of filtered | UNaV (sodium excretion) (anesthetized rats [1]; huUgnB 35 nmol, Pre-infuse): 132 ± 40 nEq/min/g KW | FENa (fractional sodium excretion) (anesthetized rats [1]; huUgnB 70 nmol, Infuse): 0.24 ± 0.14 % of filtered | UNaV (sodium excretion) (anesthetized rats [1]; huUgnB 70 nmol, Infusion): 285.7 ± 165 nEq/min/g KW | FENa (fractional sodium excretion) (anesthetized rats [1]; huUgnB 70 nmol, Post-infuse, * p<0.05 vs time control): 0.52 ± 0.10* % of filtered | UNaV (sodium excretion) (anesthetized rats [1]; huUgnB 70 nmol, Post-infuse, *** p<0.005 vs time control): 696 ± 151*** nEq/min/g KW | FENa (fractional sodium excretion) (anesthetized rats [1]; huUgnB 70 nmol, Pre-infuse): 0.08 ± 0.03 % of filtered | UNaV (sodium excretion) (anesthetized rats [1]; huUgnB 70 nmol, Pre-infuse): 87 ± 31 nEq/min/g KW | FENa (fractional sodium excretion) (anesthetized rats [1]; huUgnB 140 nmol, Infuse): 0.18 ± 0.05 % of filtered | UNaV (sodium excretion) (anesthetized rats [1]; huUgnB 140 nmol, Infusion): 212.1 ± 67 nEq/min/g KW | FENa (fractional sodium excretion) (anesthetized rats [1]; huUgnB 140 nmol, Post-infuse, ** p<0.01 vs time control): 0.65 ± 0.11** % of filtered | UNaV (sodium excretion) (anesthetized rats [1]; huUgnB 140 nmol, Post-infuse, *** p<0.005 vs time control): 906 ± 170*** nEq/min/g KW | FENa (fractional sodium excretion) (anesthetized rats [1]; huUgnB 140 nmol, Pre-infuse): 0.08 ± 0.01 % of filtered | UNaV (sodium excretion) (anesthetized rats [1]; huUgnB 140 nmol, Pre-infuse): 103 ± 8 nEq/min/g KW | ED50, net cumulative sodium excretion over three hours (anesthetized rats [1]; infused over first hour, log agonist response curve, FIG. 6A): 19 nmol/kg | ED50, net cumulative sodium excretion (anesthetized rats [1]; log(agonist) vs response fit, p<0.02): about 20 nmol UgnB/kg BW | UNaV time course, ANOVA vs control (anesthetized rats [1]; post infusion periods after 18, 35, 70, and 140 nmol/kg (p<0.001 for all)): significant natriuretic response | doses producing significant natriuresis (net excretory values) (anesthetized rats [1]; rat, in vivo): above 9 nmol | shape of natriuretic dose-response relationship (anesthetized rats [1]; rat, in vivo): conventional | GFR (glomerular filtration rate) (anesthetized rats [2]; huUgnB 9 nmol, Infusion): 918 ± 66 μl/min/g KW | GFR (glomerular filtration rate) (anesthetized rats [2]; huUgnB 9 nmol, Post-infuse): 947 ± 60 μl/min/g KW | GFR (glomerular filtration rate) (anesthetized rats [2]; huUgnB 9 nmol, Pre-infuse): 921 ± 57 μl/min/g KW | GFR (glomerular filtration rate) (anesthetized rats [2]; huUgnB 18 nmol, Infusion): 936 ± 76 μl/min/g KW | GFR (glomerular filtration rate) (anesthetized rats [2]; huUgnB 18 nmol, Post-infuse): 877 ± 80 μl/min/g KW | GFR (glomerular filtration rate) (anesthetized rats [2]; huUgnB 18 nmol, Pre-infuse): 890 ± 55 μl/min/g KW | GFR (glomerular filtration rate) (anesthetized rats [2]; huUgnB 35 nmol, Infusion): 830 ± 48 μl/min/g KW | GFR (glomerular filtration rate) (anesthetized rats [2]; huUgnB 35 nmol, Post-infuse): 870 ± 53 μl/min/g KW | GFR (glomerular filtration rate) (anesthetized rats [2]; huUgnB 35 nmol, Pre-infuse): 866 ± 64 μl/min/g KW | GFR (glomerular filtration rate) (anesthetized rats [2]; huUgnB 70 nmol, Infusion): 867 ± 86 μl/min/g KW | GFR (glomerular filtration rate) (anesthetized rats [2]; huUgnB 70 nmol, Post-infuse): 876 ± 26 μl/min/g KW | GFR (glomerular filtration rate) (anesthetized rats [2]; huUgnB 70 nmol, Pre-infuse): 883 ± 95 μl/min/g KW | GFR (glomerular filtration rate) (anesthetized rats [2]; huUgnB 140 nmol, Infusion): 788 ± 67 μl/min/g KW | GFR (glomerular filtration rate) (anesthetized rats [2]; huUgnB 140 nmol, Post-infuse): 924 ± 46 μl/min/g KW | GFR (glomerular filtration rate) (anesthetized rats [2]; huUgnB 140 nmol, Pre-infuse): 858 ± 86 μl/min/g KW
